Assays:
Type in all cases: in vivo
[1] = test system: Tobacco Budworm [Heliothis virescens (Fabricius)]; experiment: Insecticide test, tobacco budworm 1st instar (eggs / newly hatched larvae on dipped cotton leaf); settings: 72 h, read-out: % kill, Tobacco Budworm 1st Instar
Experimental: Tobacco Budworm [Heliothis virescens (Fabricius)]
A cotton plant with 2 true leaves expanded is dipped for 3 seconds with agitation in a 300 ppm solution. A 1.25 to 2 cm square of cheesecloth with about 50 to 100 budworm eggs 0-24 hours old is also dipped in the test solution and placed on one leaf to dry. The leaf with the treated budworm eggs is removed from the plant and placed in a 236.6 ml (8-oz) Dixie cup with a wet 5 cm piece of dental wick and covered with a lid. The other leaf is placed in a similar cup with a wick and a piece of cheesecloth infested with 50-100 newly hatched larvae is added before covering the cup with a lid. After 3 days at 26.7° C., observations of egg hatch are made as well as kill of newly hatched larvae, any inhibition of feeding, or interference of any sort with normal development.
(§1) Compounds rated active (8 or 9) are further tested at reduced concentrations in 50% acetone:50% water.

[2] = test system: Southern Armyworm [Spodoptera eridania (Cramer)]; experiment: whole plant or invertebrate; settings: for mortality at 10 ppm / mortality at 100 ppm / mortality at 1000 ppm: 48 h, read-out: % kill, Southern Armyworm 3rd Instar; for pest or weed control at 1000 µg/mL: 168 h, second leaf, 7 days from original treatment, read-out: % kill, Southern Armyworm 3rd Instar, 7 days (residual activity)
Experimental: Southern Armyworm [Spodoptera eridania ([…] bean plant with just the primary leaves expanded to 7.6 to 10 cm is dipped for 3 seconds with agitation in a 1000 ppm solution and set in a hood to dry. […] The dish is covered and held at 26.7° C. After 2 days mortality counts and estimates of the amount of feeding are made. Compounds showing partial kill and/or inhibition of feeding are held for an extra day for further observations. All compounds showing activity as defined above are retested, using the second leaf on the bean plant, after an interval of 7 days from original treatment, as an assay of residual activity. Compounds rated active (8 or 9) are further tested at reduced concentrations in 50% acetone:50% water.

[3] = test system: Cabbage Looper [Trichoplusia ni (Hubner)]; experiment: Insecticide test, cabbage looper 3rd instar; settings: 48 h, 2 days, 26.7° C., read-out: % kill, Cabbage Looper 3rd Instar
Experimental: Cabbage Looper [Trichoplusia ni (Hubner)]
A primary leaf of a cotton plant is dipped in the test solution and agitated for 3 seconds. It is then set in a hood to dry. Following this, the leaf is placed in a 10 cm petri dish containing a moist filter paper at the bottom and 10 third-instar loopers. The dish is covered and held at 26.7° C. After 2 days, mortality counts and estimates of feeding damage are recorded. Those materials showing partial kill and/or inhibition of feeding are held for another day for further observations.
as §1

[4] = test system: Tobacco Budworm [Heliothis virescens (Fabricius)]; experiment: whole plant or invertebrate; settings: 72 h, read-out: % kill, Tobacco Budworm 3rd Instar
Experimental: Third Instar Three cotton plants with just expanded cotyledons are dipped in a 1000 ppm solution, and placed in a hood to dry. When dry, each cotyledon is cut in half and each half is placed in one of ten 29.6 ml plastic medicine cups containing a 1.25 cm dental wick saturated with water, and one third instar budworm larva is added. The cup is capped and held for 3 days at 26.7° C., after which mortality counts are made. Compounds rated active (8 or 9) are further tested at reduced concentrations in 50% acetone:50% water.

| SMILES | mortality at 300 ppm [1] | mortality at 10 ppm [2] | mortality at 100 ppm [2] | mortality at 1000 ppm [2] | pest or weed control at 1000 µg/mL [2] | mortality at 100 ppm [3] | mortality at 1000 ppm [3] | mortality at 100 ppm [4] | mortality at 1000 ppm [4] | mortality at 10 ppm [3] | mortality at 10 ppm [4] | mortality at 10 ppm [1] | mortality at 100 ppm [1] |
| --- | --- | --- | --- | --- | --- | --- | --- | --- | --- | --- | --- | --- | --- |
| CCCCC(=O)N1CC(C)(C)CN=C1NN=C(C=Cc1ccc(C(F)(F)F)cc1)C=Cc1ccc(C(F)(F)F)cc1 [R1=CF3, R3=n-C4 H9] | 86 to 95% | 0% | 100% | 100% | 100% | 100% | 100% | 40% | 100% | – | – | – | – |
| CCCCC(CC)C(=O)N1CC(C)(C)CN=C1NN=C(C=Cc1ccc(C(F)(F)F)cc1)C=Cc1ccc(C(F)(F)F)cc1 (centres unmarked) | 0% | 0% | 100% | 100% | – | 90% | 100% | 40% | 100% | 80% | – | – | – |
| CCCCCC(=O)N1CC(C)(C)CN=C1NN=C(C=Cc1ccc(C(F)(F)F)cc1)C=Cc1ccc(C(F)(F)F)cc1 [R1=CF3, R3=n-C5 H11] | – | 0% | 100% | 100% | – | 50% | 100% | 70% | 100% | 0% | 0% | – | – |
| CCCCCCCCCCCC(=O)N1CC(C)(C)CN=C1NN=C(C=Cc1ccc(C(F)(F)F)cc1)C=Cc1ccc(C(F)(F)F)cc1 [R1=CF3, R3=n-C11 H23] | – | 0% | 100% | 100% | – | 70% | 100% | 70% | 100% | 0% | 0% | – | – |
| CC1(C)CN=C(NN=C(C=Cc2ccc(C(F)(F)F)cc2)C=Cc2ccc(C(F)(F)F)cc2)N(C(=O)c2ccc(C(C)(C)C)cc2)C1 | 86 to 95% | 0% | 90% | 100% | 0% | 100% | 100% | 100% | 100% | 0% | 0% | 0 to 40% | 0 to 40% |
| CCCCCCCCCCCCCCCC(=O)N1CC(C)(C)CN=C1NN=C(C=Cc1ccc(C(F)(F)F)cc1)C=Cc1ccc(C(F)(F)F)cc1 [R1=CF3, R3=n-C15 H31] | 86 to 95% | 0% | 100% | 100% | 80% | 60% | 100% | 30% | 100% | 0% | 0% | – | 0 to 40% |
| CCCCCCCC(=O)N1CC(C)(C)CN=C1NN=C(C=Cc1ccc(C(F)(F)F)cc1)C=Cc1ccc(C(F)(F)F)cc1 [R1=CF3, R3=n-C7 H15] | – | 0% | 90% | 100% | – | 90% | 100% | 0% | 100% | – | – | – | – |
| CC1(C)CN=C(NN=C(C=Cc2ccc(C(F)(F)F)cc2)C=Cc2ccc(C(F)(F)F)cc2)N(C(=O)C=Cc2ccccc2)C1 | 0% | – | – | 0% | – | – | – | – | – | – | – | – | – |
| CC(=O)N1CCCCN=C1NN=C(C=Cc1ccc(C(F)(F)F)cc1)C=Cc1ccc(C(F)(F)F)cc1 | – | 100% | 0% | 100% | 100% | 100% | 100% | 70% | 100% | 0% | 0% | 0 to 40% | 41 to 60% |
| O=C(c1ccccc1)N1CCCCN=C1NN=C(C=Cc1ccc(C(F)(F)F)cc1)C=Cc1ccc(C(F)(F)F)cc1 | 0 to 40% | – | – | – | – | – | – | – | – | – | – | – | – |
| CC(=O)N1CC(C)(C)CN=C1NN=C(C=Cc1ccc(C(F)(F)F)cc1)C=Cc1ccc(C(F)(F)F)cc1 [R1=CF3, R3=CH3, 1,5-bis(α,α,α-Trifluoro-p-tolyl)-1,4-pentadien-3-one, (1-acetyl-1,4,5,6-tetrahydro-5,5-dimethyl-2-pyrimidinyl)hydrazone] | 86 to 95% | 0% | 100% | 100% | 100% | 86 to 95% | 100% | 100% | 100% | 41 to 60% | 40% | – | 0 to 40% |
| CC(C)=CC(=O)N1CC(C)(C)CN=C1NN=C(C=Cc1ccc(C(F)(F)F)cc1)C=Cc1ccc(C(F)(F)F)cc1 [R1=CF3, R3=(CH3)2 CCH] | – | – | 0% | 100% | 0% | 10% | 100% | 0% | 100% | – | – | – | – |
| CCCCCCCCCC(=O)N1CC(C)(C)CN=C1NN=C(C=Cc1ccc(C(F)(F)F)cc1)C=Cc1ccc(C(F)(F)F)cc1 [R1=CF3, R3=n-C9 H19] | – | – | 0% | 100% | – | 60% | 100% | 100% | 100% | 0% | 0% | – | – |
| CCCCCCCCC=CCCCCCCCC(=O)N1CC(C)(C)CN=C1NN=C(C=Cc1ccc(C(F)(F)F)cc1)C=Cc1ccc(C(F)(F)F)cc1 [R1=CF3, R3=n-C8 H17CHCH(CH2)7] | – | 20% | 100% | 100% | 100% | 100% | 100% | 100% | 100% | 0% | 0% | 0 to 40% | 100% |
| CC(C)C(=O)N1CC(C)(C)CN=C1NN=C(C=Cc1ccc(C(F)(F)F)cc1)C=Cc1ccc(C(F)(F)F)cc1 [R1=CF3, R3=(CH3)2 CH] | 86 to 95% | 0% | 100% | 100% | – | 100% | 100% | 50% | 100% | 0% | 0% | – | – |
| CC(=O)N1CC(C)(C)CN=C1N(N=C(C=Cc1ccc(C(F)(F)F)cc1)C=Cc1ccc(C(F)(F)F)cc1)C(C)=O | – | 0% | 100% | 100% | 0% | 86 to 95% | 100% | 0% | 100% | 41 to 60% | – | – | – |
| CCCCCCCCCCCCCC(=O)N1CC(C)(C)CN=C1NN=C(C=Cc1ccc(C(F)(F)F)cc1)C=Cc1ccc(C(F)(F)F)cc1 [R1=CF3, R3=n-C13 H27] | – | – | 0% | 100% | – | 60% | 100% | 90% | 100% | 0% | 0% | – | – |
| CCCCCCCC(=O)N1CCCCN=C1NN=C(C=Cc1ccc(C(F)(F)F)cc1)C=Cc1ccc(C(F)(F)F)cc1 | 0 to 40% | – | – | – | – | – | – | – | – | – | – | – | – |
| CCCCCCCCCCCCCCCC(=O)N1CC(C)(C)CN=C1NN=C(C=Cc1ccc(Cl)cc1)C=Cc1ccc(Cl)cc1 [R1=Cl, R3=n-C15 H31] | – | – | 0% | 100% | 100% | 0% | 100% | 0% | 100% | – | – | – | – |
| CCCCCCCCCCCCCCCC(=O)N1CCCCN=C1NN=C(C=Cc1ccc(C(F)(F)F)cc1)C=Cc1ccc(C(F)(F)F)cc1 | 0 to 40% | – | – | – | – | – | – | – | – | – | – | – | – |

From patent publication US4152436A, “Acylated pentadienone hydrazone, method for preparing the same, and use as fire ant control agents” (American Cyanamid Company, priority 1978, dated 1979)
